Measured values: paper PMC7343540 (Journal of the American Chemical Society, 2020)

How the values were obtained:
[1] = target: T1, AsqJ (Aspergillus nidulans, UniProt Q5AR53); assay: X-ray crystal structure; type: binding; conditions: Fe, 2OG; formed in crystal from 1-H with 1 mM ascorbate and O2, 1.63 Å
[2] = target: T1, AsqJ; assay: EPR titration of Mn2+-loaded AsqJ; type: binding

T1 sequence (Q5AR53 109-416): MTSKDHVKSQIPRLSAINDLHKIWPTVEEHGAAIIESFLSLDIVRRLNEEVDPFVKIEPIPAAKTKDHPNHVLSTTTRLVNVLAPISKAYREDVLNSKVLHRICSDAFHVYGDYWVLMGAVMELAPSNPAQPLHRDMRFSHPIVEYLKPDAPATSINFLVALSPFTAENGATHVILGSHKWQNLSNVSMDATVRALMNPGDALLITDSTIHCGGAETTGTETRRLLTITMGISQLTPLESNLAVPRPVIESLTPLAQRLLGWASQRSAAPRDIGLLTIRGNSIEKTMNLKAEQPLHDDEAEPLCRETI

| Kd [2] [µM] | Structure (SMILES) | X-ray crystal structure [1] |
| --- | --- | --- |
|  | CN1C(=O)c2ccccc2NC(=O)[C@@]12O[C@H]2c1ccccc1 [3-H, cyclopenin] | revealed the presence of 3-H, and 2OG in the active site |
| ~5 | CN1C(=O)c2ccccc2NC(=O)/C1=C/c1ccc(C(F)(F)F)cc1 [2-CF3] |  |
